# Assay results: patent US9956202B2, “Use of indolyl and indolinyl hydroxamates for treating neurodegenerative disorders or cognitive decicits” (Taipei Medical University, priority 2013, dated 2018)
# Tests used:
# [1] = test system: histone 3 and 4 acetylation, p21 and phospho-ERK; experiment: Western blot of histone 3 and 4 acetylation, p21 and phospho-ERK after spinal cord injury; type: in vivo, rats; conditions: 100 mg/kg intravenous injection, vs vehicle control
# Experimental: (§1) In this example, effects of compounds of this invention were verified using spinal cord injury animal model.
# (§2) The spinal cord injury was produced by using the NYU (New York University) impactor device. The spinal cord contusion was performed under deep anesthesia with Zoleti150 (40 mg/kg i.p.) After a dorsal laminectomy was performed on T9, the spinal cord segments T9 were exposed. Then, the surgery of spinal cord injury was produced by dropping the 10 gram rod from a height of 50 mm.
# (§3) Compound 1 was dissolved in 5% ethanol, 35% polyethylene glycol and 60% normal saline at a concentration of 15 mg/ml. […]
# [2] = test system: Sprague-Dawley rats with spinal cord injury; experiment: BBB Locomotor Rating Scale after spinal cord injury; type: in vivo; conditions: intravenous 30 mg/Kg per day for 7 days, 7 days after spinal cord injury, vs vehicle, p=0.0147
# Experimental: as §1
# Male Sprague-Dawley rats (Academia Sinica, Taiwan), weighing 280-330 g, were kept two per cage for at least five days after their arrival. The rats had access to food and water at libitum and were housed within a room with a 12:12 h dark-light cycle. This study was performed in accordance with the guidelines provided by the Experimental Animal Laboratory and approved by the Animal Care and Use Committee in Taipei Medical University.
# as §2
# Behavioral tests and analyses were performed by observers blinded to the treatments. Locomotor function was observed and recorded using the Basso, Beattie, and Bresnahan (BBB) Locomotor Rating Scale. On days 1, 3, and 7 post injury, hindlimb motor function was assessed using the open-field BBB score locomotor test.
# as §3
# [3] = test system: NeuN-positive neurons of spinal cord; experiment: NeuN immunohistochemistry after spinal cord injury; type: in vivo; conditions: rats after spinal cord injury, 30 mg/Kg per day for 7 days, vs vehicle
# Experimental: as §1, §2, §3
# (§4) On 7th day after hemisection spinal cord injury, animals were deeply anesthetized by isoflurane and perfused through the left ventricle with phosphate-buffered saline (PBS), followed by cold 4% paraformaldehyde in 0.15M sodium phosphate buffer, pH 7.4. […] Furthermore, apoptosis after spinal cord injury was detected by terminal deoxynucleotidyl transferase-mediated deoxyuridine triphosphate nick-end labeling (TUNEL) using the apoptosis detection kit (Oncogene Research Products, Cambridge, Mass.). […] Only cells with clearly visible stain were counted. All data are presented as means±SEM of five consecutive cell quantifications.
# Tg2576 mice = experiment: Contextual fear conditioning (CS-US pairing) in dementia animal model; type: in vivo; conditions: orally 50 mg/kg per day for 20 days, 6-month old p=0.0264, 12-month old p=0.0028 vs untreated of same age
# Description: (§5) Tg2576 transgenic mice carry a transgene coding for the 695-amino acid isoform of human APP derived from a large Swedish family with early-onset Alzheimer's disease (AD). These mice express high concentrations of the mutant Aβ, develop significant number of amyloid plaques and display memory deficits.
# Tg2576 transgenic mice carry a transgene coding for the 695-amino acid isoform of human APP derived from a large Swedish family with early-onset Alzheimer's disease (AD). These mice express high concentrations of the mutant Aβ, develop significant number of amyloid plaques and display memory deficits. Tg2576 mice were purchased from The Jackson laboratory (Maine, US). C57BL/6J mice 6-8 week of age were purchased from BioLASCO Taiwan Co., Ltd for dose-dependent effect study. The animals were housed 5 per cage in a temperature (21±1° C.)—and humidity (70±5%)—controlled room, under a 12 h-12 h light-dark cycle (lights on at 6:00 a.m.). Animal had free access to food and water during the experiment. Behavior testing was carried out in the light phase of the cycle. […]
# (§6) All mice were transported to the laboratory for 2 hour before training to erase unnecessary stress. […] The data was recorded and calculated by its system software (TruScan 2.02).
# C57BL/6J mice = experiment: Contextual fear conditioning (freezing behavioral test) in normal mice; type: in vivo; conditions: normal C57BL/6J mice; 50, 100, 200 mg/kg intraperitoneally once before training; test 24 h after training; dose dependent; *p<0.05, **p<0.01
# Description: Tg2576 transgenic mice carry a transgene coding for the 695-amino acid isoform of human APP derived from a large Swedish family with early-onset Alzheimer's disease (AD). These mice express high concentrations of the mutant Aβ, develop significant number of amyloid plaques and display memory deficits. Tg2576 mice were purchased from The Jackson laboratory (Maine, US). C57BL/6J mice 6-8 week of age were purchased from BioLASCO Taiwan Co., Ltd for dose-dependent effect study. The animals were housed 5 per cage in a temperature (21±1° C.)—and humidity (70±5%)—controlled room, under a 12 h-12 h light-dark cycle (lights on at 6:00 a.m.). Animal had free access to food and water during the experiment. Behavior testing was carried out in the light phase of the cycle. All animal experiments were carried out in accordance with the guidelines established by the Institutional Animal Care and Utilization Committee of the Taipei Medical University (Taipei, Taiwan, R.O.C.).
# as §3, §6
# [4] = test system: apoptotic cells of spinal cord; experiment: TUNEL staining of apoptosis after spinal cord injury; type: in vivo; conditions: rats after spinal cord injury, 30 mg/Kg per day for 7 days, vs vehicle
# Experimental: as §1, §2, §3, §4
# [5] = test system: synaptic plasticity proteins; experiment: Western blotting of synaptic plasticity proteins in hippocampus of Tg2576 mice; type: in vivo; conditions: oral gavage 50 mg/kg per day for 20 days
# Experimental: as §5
# Compound 1 was dissolved in 5% ethanol, 35% polyethylene glycol and 60% normal saline at a concentration of 15 mg/ml. C57BL/6J Mice were treated with Compound 1 (50, 100, 200 mg/kg, intraperitoneally) or vehicle once before contexual fear conditioning training. Then, Tg2576 transgenic mice were treated with Compound 1 orally (50 mg/kg per day for 20 days) or vehicle at the ages of 5 months and 11 months.
# Animals were deep anesthetized with choral hydrate (400 mg/kg) and perfused with both normal saline and 4% paraformaldehyde. The hippocampus were collected and lysed in lysis buffer (Lysis-M reagent, Roche). The lysates were incubated for 5 min on ice and centrifuged for 20 min at 14,000 r.p.m. and 4° C. The supernatant was collected as cytosolic protein extract. Protein concentrations were measured and normalized using Bradford protein assay kit (Pierce). After normalization, 30 μg of protein was subjected to western blotting. Immunoreactivity was examined by enhanced chemiluminescence (Millipore).
structure (smiles),measurement,setting,value
"O=C(/C=C/c1ccc2c(ccn2S(=O)(=O)c2ccccc2)c1)NO [compound 1, 3-(1-benzensulfonyl-1H-indol-5-yl)-N-hydroxy-acrylamide]",expression of histone 4 acetylation (ac-H4),[1]; p=0.0023,Significant increase
same,expression of p21,[1]; p=0.0043,Significant increase
same,expression of phospho-ERK (p-ERK),[1]; p=0.0311,Significant increase
same,expression of histone 3 acetylation (ac-H3),[1]; p=0.0451,Significant increase
same,BBB score (motor function),[2],significant recovery
same,neuron cells percentage (NeuN),[3]; p<0.0001,significantly preserved
same,neuron cells number (NeuN),[3]; p=0.0151,significantly preserved
same,tone-shock pairing memory (contextual fear conditioning),Tg2576 mice,enhanced
same,strength of tone-shock pairing memory (freezing behavioral test),C57BL/6J mice,increased significantly
same,apoptotic cells number (TUNEL),[4]; p=0.0015,significantly reduced
same,apoptotic cells percentage (TUNEL),[4]; p=0.0098,significantly reduced
same,acetyl-Histone H4 expression in hippocampus,[5]; ###p=0.0008,elevated
same,p21 expression in hippocampus,[5]; #p=0.0145,elevated
same,NR2a protein expression in hippocampus,[5]; #p=0.0231,elevated
same,pERK expression in hippocampus,[5]; #p=0.0428,elevated
same,NR2b protein expression in hippocampus,[5]; #p=0.0492,elevated
